Reference: publication PMC8807399, “Synthesis, Characterization, and in vivo Evaluation of a Novel Potent Autotaxin-Inhibitor” (Frontiers in Pharmacology, 2022)

How the values were obtained:
HDAC4 = biological target: T1, HDAC4 (Homo sapiens, UniProt P56524); assay: Off-target screen HDAC4; assay type: biochemical; conditions: 10 µM; single point, duplicates
T1 construct: purchased Eurofins CEREP SA

Dopamine D2 receptor = biological target: T2, Dopamine D2 receptor (Homo sapiens, UniProt P14416); assay: Off-target screen Dopamine D2; assay type: binding; conditions: 10 µM; single point, duplicates
T2 construct: purchased Eurofins CEREP SA

[1] = In vitro microsomal stability, rat; assay type: in vitro ADME; conditions: rat microsomes, 1 µM; value of 10 = low clearance, essentially below detection limit
Protocol: Incubations of a test compound at a concentration of 1 µM with microsomes (0.5 mg/ml) from the appropriate species (human, mouse, or rat) plus cofactor NADPH were performed in 96-well plates at 37°C on a TECAN automated liquid handling system (Tecan Group Ltd., Männedorf, Switzerland). After pre-incubation of the test compound with the microsomes for 10 min, the enzymatic reaction was started by the addition of cofactors. Aliquots of the incubations are removed at 1, 3, 6, 9, 15, 25, 35, and 45 min and are then quenched with 1:3 (v/v) acetonitrile containing internal standards. Samples were then cooled and centrifuged before analysis of the supernatant by LC-MS/MS. Logarithmic Peak area ratios (test compound peak area/internal standard peak area) were plotted against incubation time and a linear fit made to the data with emphasis upon the initial rate of compound disappearance. The slope of the fit was then used to calculate the intrinsic clearance: Clint (µL/min/mg protein) = −slope (min-1) * 1,000/[protein concentration (mg/ml)].

I/R model rats = assay: Retinal ischemia/reperfusion (I/R) model; assay type: in vivo, rat; conditions: for ERG b-wave amplitude: I/R + ATX-i eyes vs control; for ERG a-wave amplitude: I/R + ATX-i group vs control
Protocol: Diets containing compound 13 were manufactured by ssniff Spezialdiäten GmbH (Soest, Germany). Calculations of the daily doses were based on average food intake of rats used in the studies. The regular chow diet for the 60 mg/kg dose was calculated as 8.5 kg and mixed with a solution of 13 in ethanol (4.8%, w/w). The amount of 13 used was 1.0 g per kg of food. After mixing, ethanol was removed in vacuo until dryness. For the preparation of the 20 mg/kg dose, the same procedure was used by applying 0.333 g of 13 per kg of food.
The oral treatment with the ATX-inhibitor 13 (ATX-i; 20 mg/kg; Roche) started 7 days prior to immunization and 3 days prior I/R induction and continued throughout the study. The regular chow diet for the treatment groups was replaced with the same chow diet containing the treatment substance.
An established I/R model was used ([Schmid et al., 2014]; [Renner et al., 2017]). Therefore, rats were anesthetized with a ketamine/xylazine/vetranquil cocktail (0.65/0.65/0.2 ml). One eye per animal was dilated with 5% tropicamide (Pharma Stulln, Stulln, Germany) and anesthetized topically with conjuncain (Bausch and Lomb, Berlin, Germany). Additionally, a pain medication injection of metamizole (Novalgin; Zentiva, Frankfurt am Main, Germany) was administered subcutaneously. IOP was raised to 140 mmHg for 60 min by elevating a saline reservoir connected to a needle, which was placed into the anterior chamber of the eye. Retinal ischemia was confirmed by observing whitening of the retina via an ophthalmoscope (Mini 300; Heine Optotechnik, Herrsching, Germany). Reperfusion was later reassured by observing the returning blood flow. The contralateral eye was used as a control. Analyses were performed 7 and 14 days after ischemia induction.
ERG measurements were performed on all eyes 7 and 14 days after I/R induction as previously described ([Schmid et al., 2014]; [Palmhof et al., 2018]). Before performing the ERG under dim red light, rats were dark adapted overnight. The readings were done using a full-field flash electroretinograph (HMs ERG system, OcuScience, Henderson, NV, United States). After anesthesia with a ketamine/xylazine cocktail (100/4 mg/kg) eyes were dilated and topically anesthetized. Reference electrodes were placed subcutaneously below the right and left ear and a ground electrode was placed in the base of the tail. Silver thread recording electrodes were placed in the center of the cornea. Scotopic flash ERGs were recorded at 0.1, 0.3, 1, 3, 10, and 25 cd*s/m^2 for each eye (7 days: 5-6 eyes/group; 14 days: 6-7 eyes/group). Signals obtained from the corneal surface were then amplified, digitized, and averaged using ERG View 4.380R software (OcuScience).
After explantation, eyes and optic nerves were fixed in 4% paraformaldehyde for 60 min (eyes) or 120 min (optic nerves) and then treated with 30% sucrose overnight. Afterwards, the retinas and optic nerves were embedded in NEG-50 Tissue-Tek medium (Thermo Fisher, Waltham, MA, United States). Cryo-cross sections of the eyes (10 µm) or longitudinal sections of the optic nerves (4 µm) were cut on a microtome (Thermo Fisher), mounted on Histobond Superfrost^+ slides (Thermo Fisher) and fixed in ice cold acetone for 10 min.
Retinal cross-sections from the I/R studies were stained with hematoxylin and eosin (H&E) to visualize retinal layers and changes in the thickness of the layers using standard protocols (7 days: 5-6 retinas/group; 14 days: 6-7 retinas/group). The thickness of the ganglion cell layer (GCL) was analyzed with the measuring tool of the ZEN2012 image analysis software (Zeiss, Oberkochen, Germany). Therefore, they were measured three times and the value was averaged ([Palmhof et al., 2019]).
Longitudinal optic nerve sections (EAG: 5-6 nerves/group, I/R 14 days: 6-7 nerves/group) were stained with H&E and luxol fast blue (LFB). […]

[2] = system: Ca2^+ channel (diltiazem site); assay: Off-target screen Ca2+ channel (diltiazem site); conditions: 10 µM; single point, duplicates
LPA2 receptor = biological target: T3, LPA2 receptor (Homo sapiens, UniProt Q9HBW0); assay: Off-target screen LPA2 receptor, agonist mode; assay type: cell-based; conditions: 10 µM, single point, duplicates
T3 construct: purchased Eurofins CEREP SA
T3 sequence (Q9HBW0 whole entry): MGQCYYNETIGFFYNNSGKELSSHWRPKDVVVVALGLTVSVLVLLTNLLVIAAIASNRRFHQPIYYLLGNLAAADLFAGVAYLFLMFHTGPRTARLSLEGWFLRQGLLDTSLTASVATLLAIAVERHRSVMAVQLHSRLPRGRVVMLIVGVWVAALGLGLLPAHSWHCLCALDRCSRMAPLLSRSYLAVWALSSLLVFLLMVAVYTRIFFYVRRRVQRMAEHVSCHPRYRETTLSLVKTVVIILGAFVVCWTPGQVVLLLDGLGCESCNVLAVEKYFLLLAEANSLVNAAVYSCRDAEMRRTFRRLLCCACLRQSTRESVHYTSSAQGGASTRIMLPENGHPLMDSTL

T1 sequence (P56524 whole entry): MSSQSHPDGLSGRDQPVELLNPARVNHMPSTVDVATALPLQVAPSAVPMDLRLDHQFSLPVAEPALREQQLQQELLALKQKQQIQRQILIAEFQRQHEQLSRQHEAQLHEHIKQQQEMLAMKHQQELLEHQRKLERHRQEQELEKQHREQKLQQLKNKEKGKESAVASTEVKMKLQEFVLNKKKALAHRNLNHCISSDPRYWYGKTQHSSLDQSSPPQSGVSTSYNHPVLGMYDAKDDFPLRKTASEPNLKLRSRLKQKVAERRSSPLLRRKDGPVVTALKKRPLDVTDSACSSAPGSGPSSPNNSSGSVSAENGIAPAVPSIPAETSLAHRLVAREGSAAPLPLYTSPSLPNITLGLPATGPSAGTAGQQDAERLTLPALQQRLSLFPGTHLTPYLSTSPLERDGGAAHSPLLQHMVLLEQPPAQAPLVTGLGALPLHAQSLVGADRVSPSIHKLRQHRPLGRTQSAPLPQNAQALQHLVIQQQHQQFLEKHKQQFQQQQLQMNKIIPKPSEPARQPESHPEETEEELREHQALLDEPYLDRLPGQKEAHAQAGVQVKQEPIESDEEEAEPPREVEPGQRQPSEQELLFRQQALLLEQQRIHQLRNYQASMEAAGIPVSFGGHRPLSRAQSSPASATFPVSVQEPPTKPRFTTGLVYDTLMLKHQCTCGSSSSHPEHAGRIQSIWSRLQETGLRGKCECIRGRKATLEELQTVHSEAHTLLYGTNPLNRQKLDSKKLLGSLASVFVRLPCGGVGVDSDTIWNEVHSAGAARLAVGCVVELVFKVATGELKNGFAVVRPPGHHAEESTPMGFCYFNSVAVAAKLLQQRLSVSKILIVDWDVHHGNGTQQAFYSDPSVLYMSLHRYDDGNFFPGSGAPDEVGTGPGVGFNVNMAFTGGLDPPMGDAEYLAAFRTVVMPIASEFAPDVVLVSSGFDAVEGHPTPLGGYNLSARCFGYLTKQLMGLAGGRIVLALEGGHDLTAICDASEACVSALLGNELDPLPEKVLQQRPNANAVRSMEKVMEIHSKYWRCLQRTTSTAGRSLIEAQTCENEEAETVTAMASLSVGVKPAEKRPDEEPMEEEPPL
T2 sequence (P14416 whole entry): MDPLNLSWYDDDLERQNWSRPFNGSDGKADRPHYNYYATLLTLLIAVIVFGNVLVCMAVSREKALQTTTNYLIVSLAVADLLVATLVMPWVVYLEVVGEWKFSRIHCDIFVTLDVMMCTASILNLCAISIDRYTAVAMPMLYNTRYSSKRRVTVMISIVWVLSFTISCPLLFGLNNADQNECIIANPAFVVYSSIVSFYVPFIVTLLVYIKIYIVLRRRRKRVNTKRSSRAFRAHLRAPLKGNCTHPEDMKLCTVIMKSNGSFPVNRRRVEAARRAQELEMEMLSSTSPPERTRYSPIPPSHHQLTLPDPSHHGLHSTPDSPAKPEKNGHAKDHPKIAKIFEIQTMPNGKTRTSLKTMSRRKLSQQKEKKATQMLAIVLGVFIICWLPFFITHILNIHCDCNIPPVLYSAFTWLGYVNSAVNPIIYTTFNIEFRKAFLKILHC

For O=C(OCc1ccc(OC(F)(F)F)cc1)N1C[C@@H]2CN(C(=O)c3ccc4[nH]nnc4c3)C[C@H]2C1 [Compound 13, (3aS,6aS)-5-(1H-Benzotriazole-5-carbonyl)-hexahydro-pyrrolo[3,4-c]pyrrole-2-carboxylic acid 4-trifluoromethoxy-benzyl ester], the “HDAC4 (h) [% inhib]” value (HDAC4) was 3 % inhib, the “Dopamine D2 receptor (h) [% inhib]” value (Dopamine D2 receptor) was 4 % inhib and the “Mic CL r” value [1] was 10/10/10 µL/m/mg prot. For the same compound, the ERG b-wave amplitude (I/R model rats; 7 days (p < 0.001)) was “significantly lower”, the ERG b-wave amplitude (I/R model rats; 14 days (p < 0.001)) was “significantly declined” and the ERG a-wave amplitude (I/R model rats; 7 days, all light intensities (p < 0.050)) was “significant decrease”. The ERG a-wave amplitude (I/R model rats; 14 days, all light intensities (p > 0.050), vs I/R increased at 0.1 cd s/m^2 (p = 0.027)) was “comparable to the control ones”, the GCL thickness (I/R model rats; I/R + ATX-i group, 20 mg/kg food admix, 7 days, I/R 4.03 ± 0.84, control 6.28 ± 1.57) was 4.34 ± 1.63 µm and the “β-III tubulin protein level (Western Blot), retina” value (I/R model rats; I/R + ATX-i group, 7 days, I/R 0.18 ± 0.17, control 1.39 ± 0.52) was 0.28 ± 0.30. The “Iba1 protein level (Western Blot), retina” value (I/R model rats; I/R + ATX-i group, 7 days, I/R 0.61 ± 0.05, control 0.47 ± 0.11) was 0.50 ± 0.21, the “GFAP+ area, retina” value (I/R model rats; I/R + ATX-i group, 7 days, I/R 3.44 ± 1.52, control 2.46 ± 1.41) was 2.98 ± 1.13 area [%]/section and the “GFAP protein level (Western Blot), retina” value (I/R model rats; I/R + ATX-i group, 7 days, I/R 4.00 ± 1.95, control 0.71 ± 0.33) was 3.90 ± 1.14. For the same compound, the “Cleaved caspase 3+ apoptotic RGCs” value (I/R model rats; I/R + ATX-i group, 7 days, I/R 5.97 ± 1.93, control 2.62 ± 1.59) was 6.21 ± 1.62 cells/mm, the “Brn-3a+ RGC number, retina” value (I/R model rats; I/R + ATX-i group, 7 days, I/R 10.95 ± 2.48, control 48.29 ± 3.94, p = 0.008 vs I/R) was 17.61 ± 1.63 cells/mm and the “ED1+ and Iba1+ co-labeled cells, retina” value (I/R model rats; I/R + ATX-i group, 7 days, I/R 34.74 ± 6.57, control 0.81 ± 0.91, p = 0.045 vs I/R) was 26.91 ± 4.48 cells/mm. For the same compound, the “Iba1+ microglia, retina” value (I/R model rats; I/R + ATX-i group, 7 days, I/R 38.44 ± 7.75, control 5.65 ± 2.29, p = 0.045 vs I/R) was 29.04 ± 5.19 cells/mm, the “β-III tubulin protein level (Western Blot), retina” value (I/R model rats; I/R + ATX-i group, 14 days, I/R 0.06 ± 0.03, control 0.60 ± 0.08) was 0.13 ± 0.08 and the “Iba1 protein level (Western Blot), retina” value (I/R model rats; I/R + ATX-i group, 14 days, I/R 0.95 ± 0.54, control 0.28 ± 0.19) was 0.69 ± 0.44. For the same compound, the “GFAP protein level (Western Blot), retina” value (I/R model rats; I/R + ATX-i group, 14 days, I/R 1.60 ± 0.19, control 0.19 ± 0.06) was 1.31 ± 0.66, the GCL thickness (I/R model rats; I/R + ATX-i group, 14 days, I/R 2.76 ± 0.16, control 5.28 ± 0.43, p = 0.003 vs I/R) was 3.54 ± 0.34 µm and the “Activated microglia (ED1+ and Iba1+), optic nerve” value (I/R model rats; I/R + ATX-i group, 14 days, I/R 5.28 ± 0.76, control 0.06 ± 0.06) was 5.71 ± 1.04 cells/image. The “Cleaved caspase 3+ cells” value (I/R model rats; I/R + ATX-i group, 14 days, I/R 5.38 ± 0.83, control 2.58 ± 0.72) was 5.02 ± 1.52 cells/mm, the “Iba1+ cells, optic nerve” value (I/R model rats; I/R + ATX-i group, 14 days, I/R 5.65 ± 0.75, control 2.74 ± 1.06) was 6.10 ± 1.09 cells/image and the “Brn-3a+ RGC number, retina” value (I/R model rats; I/R + ATX-i group, 14 days, I/R 5.81 ± 2.85, control 56.32 ± 11.74, p = 0.017 vs I/R) was 21.62 ± 8.84 cells/mm. The “GFAP+ area, retina” value (I/R model rats; I/R + ATX-i group, 14 days, I/R 7.02 ± 2.71, control 3.35 ± 0.98) was 5.01 ± 1.70 area [%]/section, the “ED1+ and Iba1+ activated microglia, retina” value (I/R model rats; I/R + ATX-i group, 14 days, I/R 34.20 ± 9.12, control 2.99 ± 1.26) was 28.27 ± 7.63 cells/mm and the “Iba1+ microglia, retina” value (I/R model rats; I/R + ATX-i group, 14 days, I/R 45.5 ± 11.78, control 26.28 ± 3.33) was 41.17 ± 9.33 cells/mm. For the same compound, the “GFAP score, optic nerve” value (I/R model rats; I/R + ATX-i group, 14 days, score 0-2, I/R 1.13 ± 0.13, control 0.89 ± 0.30) was 1.23 ± 0.25, the “Optic nerve LFB score” value (I/R model rats; I/R + ATX-i group, 14 days, score 0-2, I/R 1.19 ± 0.25, control 0.54 ± 0.42) was 1.09 ± 0.17 and the “Optic nerve SMI-32 score” value (I/R model rats; I/R + ATX-i group, 14 days, score 0-2, I/R 1.27 ± 0.31, control 0.47 ± 0.27) was 1.05 ± 0.21. For the same compound, the “Optic nerve H&E score” value (I/R model rats; I/R + ATX-i group, 14 days, score 0-4, I/R 2.43 ± 0.37, control 0.77 ± 0.27) was 2.25 ± 0.44, the “Ca2^+ channel (diltiazem site) (r) [% inhib]” value [2] was 9 % inhib and the “LPA2 receptor (h), agonist mode [% pos ctrl]” value (LPA2 receptor) was 8 % pos ctrl.
